Results published in patent publication US10654875B2, “Cell-penetrating, guanidinium-rich oligophosphotriesters for drug and probe delivery” (The Board of Trustees of the Leland Stanford Junior …, priority 2015, dated 2020).

Experiments:
HeLa cells [1] = details: without attachment to a transporter, previously shown; cited from earlier work
[2] = tested on: OVCA-429T (resistant) ovarian cancer cells; test: MTT toxicity assay of PTX and PTX-HexPhos conjugate; assay type: cell-based, human; details: for Resistance Factor: ratio of EC50 in OVCA-429T and OVCA-429 cells
Experimental: The in vitro efficacy of PTX-HexPhos conjugate 16 was compared to free PTX in both wild-type and PTX-resistant ovarian cancer cells engineered to have high levels of Pgp up-regulation. OVCA-429 (wild-type) and OVCA-429T (resistant) cells were treated with free PTX (14) or the HexPhos conjugate 16 for 20 minutes in PBS, then washed and incubated for 3 days. After this time, cellular viability was assessed using a standard MTT assay to generate an EC50 value (the concentration at which overall cellular viability was half that of untreated cells) for each condition. […] The efficacy of these compounds can be expressed in terms of a “resistance factor” for free PTX and the HexPhos-paclitaxel conjugate 16, defined as the EC50 in resistant cells/the EC50 in wild-type cells.
MTT Toxicity Assays. The cytotoxicity of HexPhos oligomers, PTX alone, and PTX-HexPhos conjugate (16) were assessed by a standard MTT percent viability assay. Adherent cells (HeLa for oligomers alone, OVCA-429 or OVCA-429T for PTX and PTX-HexPhos conjugate) were plated at 5,000 cells/well in 96 well plates and allowed to incubate at 37° C. for 12-24 hours to adhere. Cells were washed with serum-free DMEM prior to treatment. In a second 96-well plate, compounds were serially diluted over a range of 200 μM to 400 nM, with two-fold dilutions between each well. For PTX conditions, a range of 20 μM to 40 nM was used. Each compound was tested in triplicate. […] Second plate was transferred to the plate containing cells, and incubated at 37° C. for 10 minutes, followed washing and replacement with 150 μL fresh serum-containing DMEM. Cells were incubated for an additional 72 hours at 37° C., after which time cellular viability was assayed by adding μ10 L of 3-(4,5-dimethylthiazol-2-yl)-2,5-diphenyltetrazolium bromide (MTT) solution (15 mg in 3 mL DMEM). Incubated for 2 hours at 37° C. […] Read absorbance on a plate reader at 570 and 690 nm. Subtracted absorbance at 570 from absorbance at 690 and normalized to wells with no cells as a minimum, and untreated cells as a maximum to calculate % viability.

[3] = tested on: OVCA-429 (wild-type) ovarian cancer cells; test: as above; assay type: cell-based, human; details: wash, 72 hours drug-free media, concentrations based on paclitaxel content
Experimental: OVCA-429 (wild-type) and OVCA-429T (resistant) cells were treated with free PTX (14) or the HexPhos conjugate 16 for 20 minutes in PBS, then washed and incubated for 3 days. After this time, cellular viability was assessed using a standard MTT assay to generate an EC50 value (the concentration at which overall cellular viability was half that of untreated cells) for each condition. […] The efficacy of these compounds can be expressed in terms of a “resistance factor” for free PTX and the HexPhos-paclitaxel conjugate 16, defined as the EC50 in resistant cells/the EC50 in wild-type cells.
MTT Toxicity Assays. The cytotoxicity of HexPhos oligomers, PTX alone, and PTX-HexPhos conjugate (16) were assessed by a standard MTT percent viability assay. Adherent cells (HeLa for oligomers alone, OVCA-429 or OVCA-429T for PTX and PTX-HexPhos conjugate) were plated at 5,000 cells/well in 96 well plates and allowed to incubate at 37° C. for 12-24 hours to adhere. Cells were washed with serum-free DMEM prior to treatment. In a second 96-well plate, compounds were serially diluted over a range of 200 μM to 400 nM, with two-fold dilutions between each well. […] Read absorbance on a plate reader at 570 and 690 nm. Subtracted absorbance at 570 from absorbance at 690 and normalized to wells with no cells as a minimum, and untreated cells as a maximum to calculate % viability.

HeLa cells [4] = test: Uptake of maleimide conjugates by flow cytometry; details: 10 μM, 10 minutes
Experimental: (FIG. 4A) Delivery of FL-maleimide to HeLa cells by click-coupling to thiol-initiated HexPhos oligomer 8. Maleimide control and HexPhos8 conjugate (11 and 12 respectively) were formed by reaction of 10 with the corresponding thiol for 2 hours at room temperature in PBS. The resulting compounds were exposed to HeLa cells at 10 μM final concentration for 10 minutes before determining uptake by flow cytometry. Data shown is the average fluorescence of 10,000 events measured.
To explore this strategy, deprotected thiol-initiated HexPhos 8-mer (7) was mixed with fluorescein (FL) maleimide (10) in PBS at room temperature for 2 hours to effect a Michael addition and uptake of the resulting conjugate was determined by flow cytometry (FIG. 4, panel A).
HeLa cells were plated at 40,000 cells/well in 24-well plates and incubated at 37° C. for 12-24 hours to adhere. Before treatment, a 1:1 molar ratio of thiol-initiated HexPhos oligomer (7) and FL-maleimide (10, Molecular Probes) was incubated for 2 hours in PBS (pH 7.4) at a final concentration of 4 mM. […] After removal of the supernatant, cells were resuspended in 125 μL of PBS and transferred to FACS tubes and read on a flow cytometry analyzer for the presence of fluorescein. Results were analyzed by FlowJo software. Data presented is the mean fluorescence from 10,000 cells analyzed.

CN(C)c1cccc2c(S(=O)(=O)NCCO)cccc12 [Compound 4, 5-(dimethylamino)-N-(2-hydroxyethyl)naphthalene-1-sulfonamide]
cell entry of probe alone (HeLa cells [1]): not to enter cells

CC(=O)O[C@H]1C(=O)[C@@]2(C)[C@H]([C@H](OC(=O)c3ccccc3)[C@]3(O)C[C@H](OC(=O)[C@H](O)[C@@H](NC(=O)c4ccccc4)c4ccccc4)C(C)=C1C3(C)C)[C@]1(OC(C)=O)CO[C@@H]1C[C@@H]2O [PTX Alone (14), paclitaxel]
EC50 ([2]; Homo sapiens, treated 20 minutes, wash, 72 hours drug-free media, MTT, assay limit 20 μM): > 20 µM | Resistance Factor [2]: >400 | Resistance Factor ([2]; listed as 14): ≥ 400 | EC50 ([3]; Homo sapiens, OVCA429, treated 20 minutes): 0.051 ± 0.037 µM | EC50 (μM) OVCA-429 (Wild-type) ([3]; treated 20 minutes): highly cytotoxic

O=C1OC2(c3ccc(O)cc3Oc3cc(O)ccc32)c2ccc(N3C(=O)C=CC3=O)cc21 [Compound 10, fluorescein (FL) maleimide]
FL fluorescence of cells treated with controls (HeLa cells [4]): little FL fluorescence
